Laboratory results from patent US11384060B2, “Amide compounds and use thereof” (ALPHALA CO., LTD., priority 2017, dated 2022).

Legend:
glucagon receptor (GCGR) = molecular target: T1, glucagon receptor (GCGR) (Homo sapiens, UniProt P47871); experiment: I125-glucagon binding assay (competition, GCGR membrane fractions)
T1 construct: expressed in transfected cells; host or cells: CHO-K1 cells overexpressing GCGR (membrane fractions)
Outline: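 Competition of 0.0625 nM (final) I^125-glucagon for 30 min at 25° C, after 5 min compound preincubation, using 7.5 μg/well GCGR-overexpressing CHO-K1 membranes in 50 mM Tris pH 7.4, 0.5% BSA. Filtration onto PEI-coated GF/B, micro-beta counting, and non-linear regression gave IC50.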

[1] = molecular target: T2, glucagon receptor (GCGR) overexpressed CHO-K1 cells or human primary hepatocytes (Homo sapiens, UniProt P47871); experiment: Glucagon cAMP inhibition assay (Cisbio cAMP Dynamic 2 HTRF); format: cell-based
T2 construct: expressed in transfected cells; host or cells: GCGR overexpressed CHO-K1 cells or human primary hepatocytes (endogenous receptor)
Outline: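 HTRF read-out of glucagon-induced cAMP, with IC50 from non-linear regression. Cells (GCGR CHO-K1 or human primary hepatocytes) in HBSS/0.1% BSA/800 nM IBMX took compound dilutions for 30 min (final DMSO 1%), then EC50-level glucagon for 30 min at room temperature, then a 60 min lysis/detection step.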

T1 sequence (P47871 26-477): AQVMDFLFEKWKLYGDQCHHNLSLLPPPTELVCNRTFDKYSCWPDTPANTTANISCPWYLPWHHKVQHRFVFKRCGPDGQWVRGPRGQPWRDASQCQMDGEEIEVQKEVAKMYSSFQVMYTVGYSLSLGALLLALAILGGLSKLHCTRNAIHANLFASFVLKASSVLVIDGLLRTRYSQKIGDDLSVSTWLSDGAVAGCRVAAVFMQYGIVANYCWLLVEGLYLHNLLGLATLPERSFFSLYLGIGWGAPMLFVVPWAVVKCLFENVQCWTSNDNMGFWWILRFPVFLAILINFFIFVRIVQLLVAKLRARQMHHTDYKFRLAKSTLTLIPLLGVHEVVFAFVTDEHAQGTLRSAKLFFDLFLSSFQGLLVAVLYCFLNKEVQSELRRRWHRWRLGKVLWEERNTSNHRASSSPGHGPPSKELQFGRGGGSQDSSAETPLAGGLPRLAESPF
T2 sequence (P47871 26-477): as above

IC50 (glucagon receptor (GCGR)) | IC50 cAMP [1] | Compound
163 nM | 1082 nM | CC(C)C[C@H](Cc1ccc(-c2cc3ccccc3o2)cc1)Nc1ccc(C(=O)NCCC(=O)O)cc1 [Compound 19-5, (R)-3-(4-((1-(4-(benzofuran-2-yl)phenyl)-4-methylpentan-2-yl)amino)benzamido)propanoic Acid]
158 nM | 632 nM | CCCCC[C@H](Cc1ccc(-c2cc3ccccc3o2)cc1)Nc1ccc(C(=O)NCCC(=O)O)cc1 [Compound 19-6, (R)-3-(4-((1-(4-(benzofuran-2-yl)phenyl)heptan-2-yl)amino)benzamido)propanoic Acid]
299 nM | 731 nM | CCCC[C@H](Cc1ccc(-c2ccc(C(C)(C)C)cc2)cc1)Nc1ccc(C(=O)NCCC(=O)O)cc1 [Compound 19-7, (R)-3-(4-((1-(4′-(tert-butyl)-[1,1′-biphenyl]-4-yl)hexan-2-yl)amino)benzamido)propanoic Acid]
152 nM | 877 nM | CC(C)C[C@H](Cc1ccc(-c2ccc(C(C)(C)C)cc2)cc1)Nc1ccc(C(=O)NCCC(=O)O)cc1 [Compound 19-8, (R)-3-(4-((1-(4′-(tert-butyl)-[1,1′-biphenyl]-4-yl)-4-methylpentan-2-yl)amino)benzamido)propanoic Acid]
151 nM | 76.8 nM | CCCCC[C@@H](Cc1ccc(-c2ccc(OC(F)(F)F)cc2)cc1)Nc1ccc(C(=O)NCCC(=O)O)cc1 [Compound 19-9, (S)-3-(4-((1-(4′-(trifluoromethoxy)-[1,1′-biphenyl]-4-yl)heptan-2-yl)amino)benzamido)propanoic Acid]
195 nM | 373 nM | CC(C)CC[C@@H](Cc1ccc(-c2ccc(C(F)(F)F)cc2)cc1)Nc1ccc(C(=O)NCCC(=O)O)cc1 [Compound 19-10, (S)-3-(4-((5-methyl-1-(4′-(trifluoromethyl)-[1,1′-biphenyl]-4-yl)hexan-2-yl)amino)benzamido)propanoic Acid]
283 nM | 259.9 nM | CCCC[C@@H](Cc1ccc(-c2cc3ccccc3o2)cc1)Nc1ccc(C(=O)NCCC(=O)O)cc1 [Compound 19-11, (S)-3-(4-((1-(4-(benzofuran-2-yl)phenyl)hexan-2-yl)amino)benzamido)propanoic Acid]
763 nM | 1788 nM | CCCOC[C@H](Cc1ccc(-c2ccc(C(C)(C)C)cc2)cc1)Nc1ccc(C(=O)NCCC(=O)O)cc1 [Compound 19-12, (S)-3-(4-((1-(4′-(tert-butyl)-[1,1′-biphenyl]-4-yl)-3-propoxypropan-2-yl)amino)benzamido)propanoic Acid]
621 nM | 740 nM | CCCOC[C@H](Cc1ccc(-c2ccc(C(F)(F)F)cc2)cc1)Nc1ccc(C(=O)NCCC(=O)O)cc1 [Compound 19-13, (S)-3-(4-((1-propoxy-3-(4′-(trifluoromethyl)-[1,1′-biphenyl]-4-yl)propan-2-yl)amino)benzamido)propanoic Acid]
444 nM | 787 nM | CCCOC[C@H](Cc1ccc(-c2ccc(OC(F)(F)F)cc2)cc1)Nc1ccc(C(=O)NCCC(=O)O)cc1 [Compound 19-14, (S)-3-(4-((1-propoxy-3-(4′-(trifluoromethoxy)-[1,1′-biphenyl]-4-yl)propan-2-yl)amino)benzamido)propanoic Acid]
2670 nM | 2029 nM | CCCOC[C@H](Cc1ccc(-c2ccc(Cl)cc2Cl)cc1)Nc1ccc(C(=O)NCCC(=O)O)cc1 [Compound 19-15, (S)-3-(4-((1-(2′,4′-dichloro-[1,1′-biphenyl]-4-yl)-3-propoxypropan-2-yl)amino)benzamido)propanoic Acid]
3700 nM | 1729 nM | CCCOC[C@H](Cc1ccc(-c2c(C)cc(C)cc2C)cc1)Nc1ccc(C(=O)NCCC(=O)O)cc1 [Compound 19-16, (S)-3-(4-((1-propoxy-3-(2′,4′,6′-trimethyl-[1,1′-biphenyl]-4-yl)propan-2-yl)amino)benzamido)propanoic Acid]
